Experimental data reported in ChEMBL document CHEMBL1833944, “Conformationally constrained farnesoid X receptor (FXR) agonists: alternative replacements of the stilbene” (Bioorg Med Chem Lett, 2011).

Columns and labels:
[1] = Terminal half life in rat at 1 mg/kg, iv; type: ADME, organism-based; set-up: dose 1 mg/kg, route intravenous; conditions: in vivo, read-out: beta t1/2
[2] = Clearance in rat at 1 mg/kg, iv; type: ADME, organism-based; set-up: dose 1 mg/kg, route intravenous; conditions: in vivo
Bile acid receptor [3] = target: T1, Bile acid receptor (Homo sapiens, UniProt Q96RI1); assay: Agonist activity at human FXR LBD transfected in african green monkey CV1 cells after overnight incubation by luciferase reporter gene assay; type: functional, cell-based, CV-1
T1 sequence (Q96RI1 whole entry): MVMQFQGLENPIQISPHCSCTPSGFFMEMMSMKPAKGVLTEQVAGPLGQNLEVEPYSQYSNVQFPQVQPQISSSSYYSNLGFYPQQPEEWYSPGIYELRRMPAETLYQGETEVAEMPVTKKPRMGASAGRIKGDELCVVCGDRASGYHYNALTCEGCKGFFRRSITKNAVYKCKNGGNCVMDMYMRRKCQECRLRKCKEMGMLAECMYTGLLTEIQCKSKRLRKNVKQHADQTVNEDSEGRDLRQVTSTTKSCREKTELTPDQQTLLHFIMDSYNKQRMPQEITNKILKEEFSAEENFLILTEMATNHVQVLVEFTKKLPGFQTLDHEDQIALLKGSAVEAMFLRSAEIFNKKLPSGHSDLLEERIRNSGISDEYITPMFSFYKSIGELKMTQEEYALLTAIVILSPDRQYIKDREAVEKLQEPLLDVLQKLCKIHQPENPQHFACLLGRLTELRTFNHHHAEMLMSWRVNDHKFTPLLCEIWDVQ

[4] = target: T2, Bile acid receptor (Homo sapiens) (UniProt Q96RI1); assay: Agonist activity at human FXR LBD transfected in african green monkey CV1 cells assessed as maximum efficacy after overnight incubation by luciferase reporter gene assay relative to GW4064; type: functional, cell-based; conditions: CV-1
T2 sequence (whole entry): T1 sequence (Q96RI1 whole entry)

Rattus norvegicus = assay: Dose normalized AUC in rat at 5 mg/kg, po; type: ADME, organism-based; set-up: dose 5 mg/kg, route oral; conditions: in vivo
[5] = target: T2, Bile acid receptor (Homo sapiens); assay: Agonist activity at human amino-terminal polyhistidine-tagged FXR alpha LBD (amino acids 237 to 472) assessed as maximum efficacy measuring cofactor peptide SRC-1 interaction with receptor ligand binding domain after 2 hrs by FRET assay relative to GW4064
[6] = Oral bioavailability in rat at 5 mg/kg; type: ADME, organism-based; conditions: in vivo
Bile acid receptor [7] = target: T1, Bile acid receptor; assay: Agonist activity at human amino-terminal polyhistidine-tagged FXR alpha LBD (amino acids 237 to 472) assessed as cofactor peptide SRC-1 interaction with receptor ligand binding domain after 2 hrs by FRET assay
[8] = Volume of distribution at steady state in rat at 1 mg/kg, iv; type: ADME, organism-based; set-up: dose 1 mg/kg, route intravenous; conditions: in vivo, read-out: Vdss
[9] = Selectivity for human FXR over LXR alpha receptor
[10] = Selectivity for human FXR over PPAR alpha receptor
[11] = Inhibition of Cytochrome P450; type: ADME
[12] = Selectivity for human FXR over PPAR delta receptor
[13] = Selectivity for human FXR over PXR receptor
[14] = Selectivity for human FXR over LXR beta receptor
[15] = Selectivity for human FXR over PPAR gamma receptor

Compound	half-life [1] [h]	clearance [2] [mL/min/kg]	EC50 (Bile acid receptor [3]) [nM]	Emax [4] [%]	AUC/dose (Rattus norvegicus) [ng·kg·h/mL/mg]	Emax [5] [%]	bioavailability [6] [%]	EC50 (Bile acid receptor [7]) [nM]	Vd [8] [L/kg]	fold change (FC) [9]	fold change (FC) [10]	IC50 [11] [nM]	fold change (FC) [12]	fold change (FC) [13]	fold change (FC) [14]	fold change (FC) [15]
CC(C)c1onc(-c2c(Cl)cccc2Cl)c1COc1ccc(-c2ccc3c(C(=O)O)csc3c2)cc1	0.367	50	24	81	0	115	0	21	0.73	–	–	–	–	–	–	–
CC(C)c1onc(-c2c(Cl)cccc2Cl)c1COc1ccc(Cn2ccc3ccc(C(=O)O)cc32)cc1	–	–	500	42	–	38	–	1000	–	–	–	–	–	–	–	–
CC(C)c1onc(-c2c(Cl)cccc2Cl)c1COc1ccc(-c2ccc3[nH]c(C(=O)O)cc3c2)cc1	1.48	55	110	78	22	81	7.1	88	1.3	–	–	–	–	–	–	–
CC(C)c1onc(-c2c(Cl)cccc2Cl)c1COc1ccc(-c2ccc3c(c2)CCCC3C(=O)O)cc1 (stereo not given)	–	–	750	68	–	72	–	550	–	–	–	–	–	–	–	–
CC(C)c1onc(-c2c(Cl)cccc2Cl)c1COc1ccc(-c2ccc3c(C(=O)O)cccc3c2)cc1	–	–	–	104	–	134	–	–	–	–	–	–	–	–	–	–
CC(C)c1onc(-c2c(Cl)cccc2Cl)c1COc1ccc(-c2ccc3oc(C(=O)O)cc3c2)cc1	1.02	78	130	90	43	93	20	51	1.7	–	–	–	–	–	–	–
CC(C)c1onc(-c2c(Cl)cccc2Cl)c1COc1ccc(-c2ccc3c(C(=O)O)c[nH]c3c2)cc1	0.433	76	31	35	11	107	5.1	20	1.2	> 100	> 100	> 5000	> 100	> 100	> 100	> 100
CC(C)c1onc(-c2c(Cl)cccc2Cl)c1COc1ccc(-c2ccc3sc(C(=O)O)cc3n2)cc1	–	–	1700	82	–	53	–	670	–	–	–	–	–	–	–	–
CC(C)c1onc(-c2c(Cl)cccc2Cl)c1COc1ccc(/C=C/c2cccc(C(=O)O)c2)c(Cl)c1	–	–	–	100	–	100	–	–	–	–	–	–	–	–	–	–
CC(C)c1onc(-c2c(Cl)cccc2Cl)c1COc1ccc(-c2ccc3sc(C(=O)O)cc3c2)cc1	–	–	530	91	–	77	–	250	–	–	–	–	–	–	–	–
CC(C)c1onc(-c2c(Cl)cccc2Cl)c1COc1ccc(Sc2cccc3sc(C(=O)O)cc23)cc1	–	–	990	59	–	72	–	190	–	–	–	–	–	–	–	–
CC(C)c1onc(-c2c(Cl)cccc2Cl)c1COc1ccc(-c2ccc3nc(C(=O)O)ccc3c2)cc1	2.83	32	–	102	130	105	–	–	3.4	–	–	–	–	–	–	–
CC(C)c1onc(-c2c(Cl)cccc2Cl)c1COc1ccc(-c2ccc3c(c2)CC(C(=O)O)C3)cc1 (stereo not given)	–	–	490	59	–	75	–	750	–	–	–	–	–	–	–	–
CC(C)c1onc(-c2c(Cl)cccc2Cl)c1COc1ccc(-c2nc3cccc(C(=O)O)c3[nH]2)cc1	–	–	1300	36	–	61	–	1200	–	–	–	–	–	–	–	–
CC(C)c1onc(-c2c(Cl)cccc2Cl)c1COc1ccc(-c2ccc3cc(C(=O)O)[nH]c3c2)cc1	1.17	30	140	69	16	96	3	210	0.5	–	–	–	–	–	–	–
